The term inhibition denotes the change of the read-out against control, counted positive when it falls.

One assay concerns the target T1, wild type (wt) lysosomal alpha-glucosidase (Homo sapiens, UniProt P10253).
T1 construct: The lysates were used as a source for wild type (wt) lysosomal alpha-glucosidase; endogenous in cells; host or cells: HL60 (ECACC No. 98070106) lysate
Briefly: alpha-glucosidase activity assay in HL60 lysate (4MU-α-D-glc).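 Further: fluorometric rate of 4MU product release read at 360 nm excitation and 450 nm emission, reactions run at 37 °C in citric phosphate buffer.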 Particulars: at a concentration of 100 uM, 0.5 mM 4MU-α-D-glc, pH 4.5. In kind it is biochemical.
In turn, `CC[C@@H]1N[C@@H](CO)[C@H](O)[C@@H](O)[C@@H]1O` [Compound 23, (2S,3R,4S,5S,6S)-2-ethyl-6-(hydroxymethyl)piperidine-3,4,5-triol] had an inhibition at 100 µM of more than 50%.
With `OCC1OC(O[C@H]2CN3C[C@H](O)[C@@H](O)[C@H](O)[C@H]3[C@H]2O)C(O)C(O)C1O` (stereo partly drawn) [Compound 41, (1R,2S,6S,7R,8R,8aS)-2-(3,4,5-trihydroxy-6-(hydroxymethyl)tetrahydro-2H-pyran-2-yloxy)octahydroindolizine-1,6,7,8-tetraol], the inhibition at 100 µM was more than 50%.
In turn, `CCCC(=O)O[C@H]1CN2CC[C@H](O)C2[C@@H](O)[C@@H]1O` (stereo partly drawn) [Compound 46, (1S,6S,7S,8R)-1,7,8-trihydroxyoctahydroindolizin-6-yl butyrate] registered an inhibition at 100 µM of more than 50%.
Same read-out and setting: the same measure for `C[C@H]1N[C@H](CO)[C@@H](O)[C@H](O)[C@H]1O` [Compound 51, (2R,3R,4R,5S,6R)-2-(hydroxymethyl)-6-methylpiperidine-3,4,5-triol]: more than 50%; for `OCC1OC(OC[C@H]2NC[C@H](O)[C@@H](O)[C@@H]2O)C(O)C(O)C1O` (stereo partly drawn) [Compound 78, (2R,3R,4R,5S)-2-((3,4,5-trihydroxy-6-(hydroxymethyl)tetrahydro-2H-pyran-2-yloxy)methyl)piperidine-3,4,5-triol]: more than 50%; for `OCC1OC(O[C@H]2[C@H](O)[C@@H](CO)N[C@@H]2CO)C(O)C(O)C1O` (stereo partly drawn) [Compound 79, 2-((2R,3R,4R,5R)-4-hydroxy-2,5-bis(hydroxymethyl)pyrrolidin-3-yloxy)-6-(hydroxymethyl)tetrahydro-2H-pyran-3,4,5-triol]: more than 50%.
The same measure, in the same setting: the same measure for `C[N+]1(C)C[C@@H](O)[C@H](O)[C@H]1C(=O)[O-]` [Compound 80, (2S,3R,4R)-3,4-dihydroxy-1,1-dimethylpyrrolidinium-2-carboxylate]: more than 50%; for `CCCCN1C[C@H](O)[C@@H](O)[C@H](O)[C@H]1CO` [Compound 118, (2R,3R,4R,5S)-1-butyl-2-(hydroxymethyl)piperidine-3,4,5-triol]: more than 50%; for `OCC1OC(O[C@H]2CN[C@H](CO)[C@@H](O)[C@@H]2O)C(O)C(O)C1O` (stereo partly drawn) [Compound 121, 2-((3S,4S,5R,6R)-4,5-dihydroxy-6-(hydroxymethyl)piperidin-3-yloxy)-6-(hydroxymethyl)tetrahydro-2H-pyran-3,4,5-triol]: more than 50%.
The same measure, in the same setting: as for `OC[C@@H]1[C@@H](O)[C@H](O)[C@H]2[C@H](O)[C@@H](O)CN21` [Compound 137, (1R,2R,3R,6S,7S,7aR)-3-(hydroxymethyl)hexahydro-1H-pyrrolizine-1,2,6,7-tetraol], the figure is more than 50%.
`C[C@@H]1CC[C@@H]2[C@H](O)[C@H](O)[C@@H](CO)N12` [Compound 150, (1S,2R,3R,5R,7aR)-3-(hydroxymethyl)-5-methylhexahydro-1H-pyrrolizine-1,2-diol] had an inhibition at 100 µM of more than 50%.
Same read-out and setting: as for `OC[C@@H](O)[C@@H]1NC[C@](O)(CO)[C@H]1O` [Compound 179, (2S,3S,4S)-2-((S)-1,2-dihydroxyethyl)-4-(hydroxymethyl)pyrrolidine-3,4-diol], the figure is more than 50%; as for `OC[C@H]1NC[C@H](O)[C@@H](O)[C@@H]1O` [Compound 193, (2R,3R,4R,5S)-2-(hydroxymethyl)piperidine-3,4,5-triol], more than 50%.
On the same count and under the same terms, as for `OC[C@@H]1NC[C@](O)(CO)[C@H]1O` [Compound 202, (2S,3S,4S)-2,4-bis(hydroxymethyl)pyrrolidine-3,4-diol], the figure is more than 50%; as for `O=C(O)CN1C[C@H](O)[C@@H](O)[C@H](O)[C@H]1CO` [Compound 214, 2-((2R,3R,4R,5S)-3,4,5-trihydroxy-2-(hydroxymethyl)piperidin-1-yl)acetic acid], more than 50%; as for `OC[C@@H]1NC[C@@H](O)[C@H](O)[C@H]1O` [Compound 221, (2S,3S,4S,5R)-2-(hydroxymethyl)piperidine-3,4,5-triol], more than 50%.
The same measure, in the same setting: the same measure for `OCCCCN1C[C@H](O)[C@@H](O)[C@H](O)[C@H]1CO` [Compound 276, (2R,3R,4R,5S)-1-(4-hydroxybutyl)-2-(hydroxymethyl)piperidine-3,4,5-triol]: more than 50%; for `C[C@@H]1N[C@@H](CO)[C@H](O)[C@H]1O` [Compound 300, (2S,3S,4S,5S)-2-(hydroxymethyl)-5-methylpyrrolidine-3,4-diol]: more than 50%.
The molecule `O[C@H]1[C@H](O)[C@@H](O)CN2C[C@H](O)[C@@H](O)[C@H]12` [Compound 352, (1S,2S,6S,7R,8R,8aR)-octahydroindolizine-1,2,6,7,8-pentaol] had an inhibition at 100 µM of more than 50%.
The same measure, in the same setting: the same measure for `C[C@H]1NC[C@H](O)[C@@H](O)[C@@H]1O` [Compound 388, (2R,3R,4R,5S)-2-methylpiperidine-3,4,5-triol]: more than 50%; for `O=C1N[C@H](CO)[C@H](O)[C@@H](O)[C@@H]1O` [Compound 446, (3S,4R,5S,6R)-3,4,5-trihydroxy-6-(hydroxymethyl)piperidin-2-one]: more than 50%; for `CCCC[C@H]1N[C@H](CO)[C@@H](O)[C@@H](O)[C@@H]1O` [Compound 488, (2R,3R,4S,5R,6R)-2-butyl-6-(hydroxymethyl)piperidine-3,4,5-triol]: more than 50%.
On the same count and under the same terms, as for `OC[C@H]1[C@H](O)[C@@H](O)CN1Cc1ccccc1` [Compound 500, (2S,3S,4S)-1-benzyl-2-(hydroxymethyl)pyrrolidine-3,4-diol], the figure is more than 50%; as for `C[C@@]1(CO)NC[C@H](O)[C@H]1O` [Compound 501, (2S,3S,4S)-2-(hydroxymethyl)-2-methylpyrrolidine-3,4-diol], more than 50%; as for `OC[C@@H]1[C@@H](O)[C@H](O)[C@@H](O)CN1CCN1CCOCC1` [Compound 509, (2R,3R,4R,5S)-2-(hydroxymethyl)-1-(2-morpholinoethyl)piperidine-3,4,5-triol], more than 50%.
`OC[C@@H]1[C@@H](O)[C@H](O)[C@@H](O)CN1Cc1ccccc1` [Compound 510, (2R,3R,4R,5S)-1-benzyl-2-(hydroxymethyl)piperidine-3,4,5-triol]: the inhibition at 100 µM is more than 50%.
`CN1[C@H](CO)[C@@H](O)[C@H](O)[C@H]1CO` [Compound 515, (2R,3R,4R,5R)-2,5-bis(hydroxymethyl)-1-methylpyrrolidine-3,4-diol]: the inhibition at 100 µM was more than 50%.
`CCCCN1C[C@H](O)[C@H](O)[C@@H]1[C@@H](O)[C@H](O)[C@H](O)CO` [Compound 531, (1R,2S,3R)-1-((2R,3R,4S)-1butyl-3,4-dihydroxypyrrolidin-2-yl)butane-1,2,3,4-tetraol] registered an inhibition at 100 µM of more than 50%.
On the same count and under the same terms, as for `OC[C@@H]1[C@@H](O)[C@H](O)[C@@H](CO)N1Cc1ccc(-c2ccccc2)cc1` [Compound 558, (2R,3R,4R,5R)-1-(biphenyl-4-ylmethyl)-2,5-bis(hydroxymethyl)pyrrolidine-3,4-diol], the figure is more than 50%; as for `COCCOCCN1C[C@H](O)[C@@H](O)[C@H](O)[C@H]1CO` [Compound 725, (2R,3R,4R,5S)-2-(hydroxymethyl)-1-(2-(2-methoxyethoxy)ethyl)piperidine-3,4,5-triol], more than 50%.
As for `CCCC[C@@H]1N[C@@H](CO)[C@H](O)[C@H]1O` [Compound 728, (2S,3S,4S,5S)-2-butyl-5-(hydroxymethyl)pyrrolidine-3,4-diol], the inhibition at 100 µM is more than 50%.
Take `OC[C@@H]1N[C@@H](CO)[C@H](O)[C@H]1O` [Compound 729, (2S,3S,4S,5S)-2,5-bis(hydroxymethyl)pyrrolidine-3,4-diol]: the inhibition at 100 µM was more than 50%.
Same read-out and setting: as for `CC[C@@H]1N[C@@H](CO)[C@H](O)[C@H]1O` [Compound 732, (2S,3S,4S,5S)-2-ethyl-5-(hydroxymethyl)pyrrolidine-3,4-diol], the figure is more than 50%.
On the same count and under the same terms, as for `CCCCN1CCC[C@@H](CO)C1` [Compound 741, (R)-(1-butylpiperidin-3-yl)methanol], the figure is more than 50%.

The next assay concerns the target T2, wild type (wt) beta-glucocerebrosidase (Homo sapiens, UniProt P04062).
T2 construct: The lysates were used as a source for wild type (wt) beta-glucocerebrosidase; endogenous in cells; host or cells: HL60 (ECACC No. 98070106) lysate
T2 sequence (P04062 40-536): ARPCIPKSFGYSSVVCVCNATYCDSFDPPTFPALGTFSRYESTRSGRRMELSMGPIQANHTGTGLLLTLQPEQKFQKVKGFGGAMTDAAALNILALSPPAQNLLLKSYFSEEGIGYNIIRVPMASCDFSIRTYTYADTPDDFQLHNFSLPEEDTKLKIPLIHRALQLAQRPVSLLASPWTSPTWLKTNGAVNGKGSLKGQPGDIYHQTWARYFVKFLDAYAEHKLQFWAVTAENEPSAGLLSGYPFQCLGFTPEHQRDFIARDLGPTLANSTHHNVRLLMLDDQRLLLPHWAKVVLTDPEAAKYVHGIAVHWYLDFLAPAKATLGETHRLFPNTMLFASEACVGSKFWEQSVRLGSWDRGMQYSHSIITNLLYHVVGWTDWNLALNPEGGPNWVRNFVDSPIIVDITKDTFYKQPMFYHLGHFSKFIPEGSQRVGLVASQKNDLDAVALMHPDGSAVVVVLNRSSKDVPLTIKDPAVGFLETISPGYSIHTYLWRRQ
Briefly: beta-glucocerebrosidase activity assay in HL60 lysate (4MU-β-D-glc).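 Further: fluorometric read-out of 4MU liberated from the substrate (ex 360 nm, em 450 nm) after 37 °C incubation, reaction stopped with sodium carbonate.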 The assay is classed as biochemical. Particulars: at a concentration of 100 μM, 0.5 mM 4MU-β-D-glc.
In turn, `OC[C@@H]1[C@@H](O)[C@H](O)[C@@H]2[C@@H](O)CCN21` [Compound 17, (1R,2R,3R,7S,7aS)-3-(hydroxymethyl)hexahydro-1H-pyrrolizine-1,2,7-triol] came in with an inhibition at 100 µM of more than 50%.
On the same count and under the same terms, as for `O[C@@H]1[C@@H](O)[C@H](O)[C@]2(O)C[C@@H](O)[C@H]1N2` [Compound 33, (1R,2S,3R,4S,5R,6R)-8-azabicyclo[3.2.1]octane-1,2,3,4,6-pentaol], the figure is more than 50%.
`OC1C[C@@]2(O)N[C@@H]1C[C@H](O)[C@H]2O` (stereo partly drawn) [Compound 43, (1S,2R,3S,5R)-8-azabicyclo[3.2.1]octane-1,2,3,6-tetraol] showed an inhibition at 100 µM of more than 50%.
Still for that read-out and setting: as for `C[C@@H]1CCC[C@@H]2[C@@H](O)[C@@H](O)[C@@H](CO)N12` [Compound 60, (1R,2S,3R,5R,8aR)-3-(hydroxymethyl)-5-methyloctahydroindolizine-1,2-diol], the figure is more than 50%.

Values taken from patent US20110237538A1, “TREATMENT OF LYSOSOMAL STORAGE DISORDERS AND OTHER PROTEOSTATIC DISEASES” (SUMMIT CORPORATION PLC, priority 2008, published 2011).
